Test results reported in ChEMBL document CHEMBL5505975, “Design, synthesis and biological evaluation of CDC20 inhibitors for treatment of triple-negative breast cancer” (Eur J Med Chem, 2024).
The source made the active and inactive calls. The calls are words filed in the database; no cut-off is given here.

How the values were obtained:
[1] = Toxicity in female BALB/C mouse implanted with mouse 4T1 cells assessed as kidney damage at 20 to 50 mg/kg, po administered every two days for 21 days by H and E staining based analysis; assay type: organism-based; conditions: in vivo, 504 h, dose 20-50 mg/kg, time 21 day
[2] = tested on: MDA-MB-231; assay: Cell cycle arrest in human MDA-MB-231 cells assessed as G2 phase cells at 20 uM incubated for 72 hrs by PI staining based flow cytometric analysis (reference value: 14.6%); assay type: functional
[3] = Toxicity in female BALB/C mouse implanted with mouse 4T1 cells assessed as liver damage at 20 to 50 mg/kg, iv administered every two days for 21 days by H and E staining based analysis; assay type: organism-based; conditions: in vivo, 504 h, dose 20-50 mg/kg, time 21 day
[4] = Toxicity in female BALB/C mouse implanted with mouse 4T1 cells assessed as change in RBC level at 20 to 50 mg/kg, iv administered every two days for 21 days by routine blood analysis; assay type: organism-based; conditions: in vivo, 504 h, dose 20-50 mg/kg, time 21 day
[5] = Toxicity in female BALB/C mouse implanted with mouse 4T1 cells assessed as change in WBC level at 20 to 50 mg/kg, iv administered every two days for 21 days by routine blood analysis; assay type: organism-based; conditions: in vivo, 504 h, dose 20-50 mg/kg, time 21 day
[6] = Toxicity in female BALB/C mouse implanted with mouse 4T1 cells assessed as effect on monocytes at 20 to 50 mg/kg, po administered every two days for 21 days by routine blood analysis; assay type: organism-based; conditions: in vivo, 504 h, dose 20-50 mg/kg, time 21 day
[7] = tested on: MDA-MB-231; assay: Induction of apoptosis in human MDA-MB-231 cells assessed as late apoptotic cells at 2.5 uM incubated for 48 hrs by Annexin V-FITC/PI staining based flow cytometric analysis (reference value: 1.06%); assay type: functional
[8] = tested on: MDA-MB-231; assay: Cell cycle arrest in human MDA-MB-231 cells assessed as G1 phase cells at 10 uM incubated for 48 hrs by PI staining based flow cytometric analysis (reference value: 76.7%); assay type: functional
[9] = tested on: MDA-MB-231; assay: Induction of autophagy in human MDA-MB-231 cells assessed as increase in LC3BII expression level incubated for 48 hrs by Western blot analysis; assay type: functional, cell-based
[10] = Toxicity in female BALB/C mouse implanted with mouse 4T1 cells assessed as kidney damage at 20 to 50 mg/kg, iv administered every two days for 21 days by H and E staining based analysis; assay type: organism-based; conditions: in vivo, 504 h, dose 20-50 mg/kg, time 21 day
[11] = tested on: MDA-MB-231; assay: Cell cycle arrest in human MDA-MB-231 cells assessed as G1 phase cells at 20 uM incubated for 72 hrs by PI staining based flow cytometric analysis (reference value: 56.7%); assay type: functional
[12] = tested on: MDA-MB-231; assay: Effect on cell morphology in human MDA-MB-231 cells at 2.5 to 10 uM incubated for 24 hrs by wound healing assay; assay type: functional, cell-based; conditions: dose 2.5-10 µM
[13] = tested on: MDA-MB-231; assay: Induction of apoptosis in human MDA-MB-231 cells assessed as necrotic cells at 2.5 uM incubated for 48 hrs by Annexin V-FITC/PI staining based flow cytometric analysis (reference value: 1.63%); assay type: functional
[14] = tested on: MDA-MB-231; assay: Induction of apoptosis in human MDA-MB-231 cells assessed as necrotic cells at 20 uM incubated for 48 hrs by Annexin V-FITC/PI staining based flow cytometric analysis (reference value: 1.63%); assay type: functional
[15] = tested on: MDA-MB-231; assay: Induction of apoptosis in human MDA-MB-231 cells assessed as necrotic cells at 5 uM incubated for 48 hrs by Annexin V-FITC/PI staining based flow cytometric analysis (reference value: 1.63%); assay type: functional
[16] = Toxicity in female BALB/C mouse implanted with mouse 4T1 cells assessed as change in serum ALT level at 20 to 50 mg/kg, po administered every two days for 21 days; assay type: organism-based; conditions: in vivo, 504 h, dose 20-50 mg/kg, time 21 day
[17] = tested on: MDA-MB-231; assay: Induction of apoptosis in human MDA-MB-231 cells assessed as viable cells at 5 uM incubated for 48 hrs by Annexin V-FITC/PI staining based flow cytometric analysis (reference value: 95.10%); assay type: functional; conditions: read-out: Activity
[18] = tested on: 4T1; assay: Antitumor activity against mouse 4T1 cells implanted in female BALB/C mouse assessed as inhibition of tumor weight at 50 mg/kg, po administered every two days for 21 days relative to control; assay type: functional, organism-based; conditions: time 21.0 day
[19] = tested on: MDA-MB-231; assay: Cell cycle arrest in human MDA-MB-231 cells assessed as G1 phase cells at 5 uM incubated for 48 hrs by PI staining based flow cytometric analysis (reference value: 76.7%); assay type: functional
[20] = tested on: MDA-MB-231; assay: Cell cycle arrest in human MDA-MB-231 cells assessed as S phase cells at 20 uM incubated for 72 hrs by PI staining based flow cytometric analysis (reference value: 28.7%); assay type: functional
[21] = Toxicity in female BALB/C mouse implanted with mouse 4T1 cells assessed as change in serum BUN level at 20 to 50 mg/kg, iv administered every two days for 21 days; assay type: organism-based; conditions: in vivo, 504 h, dose 20-50 mg/kg, time 21 day
[22] = Toxicity in female BALB/C mouse implanted with mouse 4T1 cells assessed as lung damage at 20 to 50 mg/kg, po administered every two days for 21 days by H and E staining based analysis; assay type: organism-based; conditions: in vivo, 504 h, dose 20-50 mg/kg, time 21 day
[23] = Cytotoxicity against human L02 cells assessed as reduction in cell viability incubated for 96 hrs by MTT assay; assay type: toxicity, cell-based
[24] = Toxicity in female BALB/C mouse implanted with mouse 4T1 cells assessed as effect on lymphocytes at 20 to 50 mg/kg, po administered every two days for 21 days by routine blood analysis; assay type: organism-based; conditions: in vivo, 504 h, dose 20-50 mg/kg, time 21 day
[25] = tested on: MDA-MB-231; assay: Induction of apoptosis in human MDA-MB-231 cells assessed as viable cells at 2.5 uM incubated for 48 hrs by Annexin V-FITC/PI staining based flow cytometric analysis (reference value: 95.10%); assay type: functional; conditions: read-out: Activity
[26] = Toxicity in female BALB/C mouse implanted with mouse 4T1 cells assessed as change in serum CK level at 20 to 50 mg/kg, iv administered every two days for 21 days; assay type: organism-based; conditions: in vivo, 504 h, dose 20-50 mg/kg, time 21 day
[27] = Toxicity in female BALB/C mouse implanted with mouse 4T1 cells assessed as change in WBC level at 20 to 50 mg/kg, po administered every two days for 21 days by routine blood analysis; assay type: organism-based; conditions: in vivo, 504 h, dose 20-50 mg/kg, time 21 day
[28] = Toxicity in female BALB/C mouse implanted with mouse 4T1 cells assessed as change in serum AST level at 20 to 50 mg/kg, po administered every two days for 21 days; assay type: organism-based; conditions: in vivo, 504 h, dose 20-50 mg/kg, time 21 day
[29] = Toxicity in female BALB/C mouse implanted with mouse 4T1 cells assessed as effect on neutrophils at 20 to 50 mg/kg, po administered every two days for 21 days by routine blood analysis; assay type: organism-based; conditions: in vivo, 504 h, dose 20-50 mg/kg, time 21 day
[30] = tested on: MDA-MB-231; assay: Cell cycle arrest in human MDA-MB-231 cells assessed as S phase cells at 5 uM incubated for 48 hrs by PI staining based flow cytometric analysis (reference value: 16.0%); assay type: functional
[31] = tested on: MDA-MB-231; assay: Induction of apoptosis in human MDA-MB-231 cells assessed as late apoptotic cells at 10 uM incubated for 48 hrs by Annexin V-FITC/PI staining based flow cytometric analysis (reference value: 1.06%); assay type: functional
[32] = tested on: MDA-MB-231; assay: Induction of apoptosis in human MDA-MB-231 cells assessed as viable cells at 10 uM incubated for 48 hrs by Annexin V-FITC/PI staining based flow cytometric analysis (reference value: 95.10%); assay type: functional; conditions: read-out: Activity
[33] = Toxicity in female BALB/C mouse implanted with mouse 4T1 cells assessed as change in number of platelets at 20 to 50 mg/kg, iv administered every two days for 21 days by routine blood analysis; assay type: organism-based; conditions: in vivo, 504 h, dose 20-50 mg/kg, time 21 day
[34] = tested on: MDA-MB-231; assay: Cell cycle arrest in human MDA-MB-231 cells assessed as S phase cells at 20 uM incubated for 48 hrs by PI staining based flow cytometric analysis (reference value: 16.0%); assay type: functional

## CCC(=O)NC(n1cnc2c(Nc3cc(OC)c(OC)c(OC)c3)nc(N)nc21)C(Cl)(Cl)Cl (centres undefined)
[1]
  Activity: Non-Toxic
[2]
  Activity: 51.1%
[3]
  Activity: Non-Toxic
[4]
  Activity: Non-Toxic
[5]
  Activity: Non-Toxic
[6]
  Activity: Non-Toxic
[7]
  Activity: 1.4%
[8]
  Activity: 77.5%
[9]
  Activity: Dose-Dependent Effect
[10]
  Activity: Non-Toxic
[11]
  Activity: 36.4%
[12]
  Activity: inactive
[13]
  Activity: 1.57%
[14]
  Activity: 0.99%
[15]
  Activity: 0.96%
[16]
  Activity: Non-Toxic
[17]
  viability at 5 µM: 92.8%
[18]
  Activity: inactive
[19]
  Activity: 62.8%
[20]
  Activity: 12.5%
[21]
  Activity: Non-Toxic
[22]
  Activity: Non-Toxic
[23]
  IC50 at 96 h: 14.7 µM
[24]
  Activity: Non-Toxic
[25]
  viability at 2.5 µM: 95.7%
[26]
  Activity: Non-Toxic
[27]
  Activity: Non-Toxic
[28]
  Activity: Non-Toxic
[29]
  Activity: Non-Toxic
[30]
  Activity: 28.6%
[31]
  Activity: 2.04%
[32]
  viability at 10 µM: 92.3%
[33]
  Activity: Non-Toxic
[34]
  Activity: 11.6%
